# Measurements from ChEMBL document CHEMBL1201862, “PubChem BioAssay data set” (2004).
#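 Values below derive from 48-hour exposures of cells grown in 96-well plates, with endpoints linearly interpolated between the two concentrations bracketing the appropriate inhibition level. Abbreviation: GI50, concentration required for 50% inhibition of growth.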 Active and inactive are the calls of the source. Rule as the data show it: active = GI50 up to about 1.1 µM and inactive = higher.
# Legend:
# Experiment in all cases: NCI-60 cell line screen, 48 h
# 786-0 = tested on: 786-0
# A498 = tested on: A498
# COLO 205 = tested on: COLO 205
# HOP-62 = tested on: HOP-62
# Hs-578T = tested on: Hs-578T
# IGROV-1 = tested on: IGROV-1
# MOLT-4 = tested on: MOLT-4
# NCI-H226 = tested on: NCI-H226
# NCI-H522 = tested on: NCI-H522
# NCI/ADR-RES = tested on: NCI/ADR-RES
# OVCAR-5 = tested on: OVCAR-5
# PC-3 = tested on: PC-3
# RPMI-8226 = tested on: RPMI-8226
# SK-MEL-28 = tested on: SK-MEL-28
# SK-MEL-5 = tested on: SK-MEL-5
# SK-OV-3 = tested on: SK-OV-3
# SN12C = tested on: SN12C
# SNB-19 = tested on: SNB-19
# U-251 = tested on: U-251
# UACC-62 = tested on: UACC-62
Structure (SMILES),GI50 (786-0),GI50 (A498),GI50 (COLO 205),GI50 (HOP-62),GI50 (Hs-578T),GI50 (IGROV-1),GI50 (MOLT-4),GI50 (NCI-H226),GI50 (NCI-H522),GI50 (NCI/ADR-RES),GI50 (OVCAR-5),GI50 (PC-3),GI50 (RPMI-8226),GI50 (SK-MEL-28),GI50 (SK-MEL-5),GI50 (SK-OV-3),GI50 (SN12C),GI50 (SNB-19),GI50 (U-251),GI50 (UACC-62)
O=C(O)CCNCC(=O)O,> 100 µM (inactive),> 100 µM (inactive),> 100 µM (inactive),> 100 µM (inactive),> 100 µM (inactive),> 100 µM (inactive),> 100 µM (inactive),> 100 µM (inactive),> 100 µM (inactive),> 100 µM (inactive),> 100 µM (inactive),> 100 µM (inactive),> 100 µM (inactive),> 100 µM (inactive),> 100 µM (inactive),> 100 µM (inactive),> 100 µM (inactive),> 100 µM (inactive),> 100 µM (inactive),> 100 µM (inactive)
O=C(/C=C/c1ccccc1)CCN1CCN(CCC(=O)/C=C/c2ccccc2)CC1,6.05 µM (inactive),18.9 µM (inactive),16.4 µM (inactive),22.6 µM (inactive),10.4 µM (inactive),18.2 µM (inactive),4.47 µM (inactive),16.2 µM (inactive),13.2 µM (inactive),24.7 µM (inactive),16.7 µM (inactive),16.8 µM (inactive),> 100 µM (inactive),14.2 µM (inactive),14.7 µM (inactive),13.5 µM (inactive),10.1 µM (inactive),17.6 µM (inactive),16.7 µM (inactive),16.3 µM (inactive)
CN(C)CC1CC/C(=C\c2ccc3c(c2)OCO3)C1=O (stereo not given),6.85 µM (inactive),19 µM (inactive),8.49 µM (inactive),> 51.6 µM (inactive),4.38 µM (inactive),9.75 µM (inactive),2.98 µM (inactive),20.4 µM (inactive),3.89 µM (inactive),2.79 µM (inactive),18 µM (inactive),13.6 µM (inactive),1.85 µM (inactive),10.5 µM (inactive),14.2 µM (inactive),> 43.1 µM (inactive),7.89 µM (inactive),16.2 µM (inactive),18.3 µM (inactive),16.7 µM (inactive)
CC(C)NC(=O)OCc1c(COC(=O)NC(C)C)c(-c2ccc[n+](COC(=O)CC(C)(C)C)c2)n2c1CCC2,38.4 µM (inactive),> 100 µM (inactive),89.3 µM (inactive),56.6 µM (inactive),87.7 µM (inactive),> 100 µM (inactive),> 100 µM (inactive),> 100 µM (inactive),31.6 µM (inactive),71 µM (inactive),> 100 µM (inactive),58.5 µM (inactive),> 100 µM (inactive),> 100 µM (inactive),> 100 µM (inactive),> 100 µM (inactive),73.8 µM (inactive),> 100 µM (inactive),94.8 µM (inactive),39.9 µM (inactive)
O=C1OC(OC/C(Br)=C(\Br)COC2OC(=O)C(Cl)=C2Cl)C(Cl)=C1Cl (stereo not given),2.51 µM (inactive),19.5 µM (inactive),1.67 µM (inactive),14.5 µM (inactive),5.57 µM (inactive),12.3 µM (inactive),0.807 µM (active),12.8 µM (inactive),1.71 µM (inactive),4.92 µM (inactive),12.9 µM (inactive),14.1 µM (inactive),1.08 µM (active),7.82 µM (inactive),8.83 µM (inactive),22.2 µM (inactive),5.64 µM (inactive),17.1 µM (inactive),4.58 µM (inactive),6.3 µM (inactive)
CCOP(=O)(OCC)/C(C#N)=C/c1ccnc2ccccc12,20.4 µM (inactive),78.3 µM (inactive),18.1 µM (inactive),40.8 µM (inactive),23.7 µM (inactive),45 µM (inactive),> 100 µM (inactive),24.8 µM (inactive),21.2 µM (inactive),20.5 µM (inactive),22.5 µM (inactive),17.6 µM (inactive),44.7 µM (inactive),34.6 µM (inactive),23.3 µM (inactive),36.2 µM (inactive),28.6 µM (inactive),21.4 µM (inactive),51.8 µM (inactive),26.1 µM (inactive)
O=C(O)c1ccccc1Sc1ccccc1[N+](=O)[O-],> 100 µM (inactive),> 100 µM (inactive),> 100 µM (inactive),> 100 µM (inactive),> 100 µM (inactive),> 100 µM (inactive),> 100 µM (inactive),> 100 µM (inactive),> 100 µM (inactive),> 100 µM (inactive),> 100 µM (inactive),> 100 µM (inactive),> 100 µM (inactive),> 100 µM (inactive),> 100 µM (inactive),> 100 µM (inactive),> 100 µM (inactive),> 100 µM (inactive),> 100 µM (inactive),> 100 µM (inactive)
Nc1ncnc2c1ncn2C1OC(CO)C(O)C1NS(=O)(=O)c1ccccc1 (stereo not given),> 100 µM (inactive),> 100 µM (inactive),> 100 µM (inactive),> 100 µM (inactive),> 100 µM (inactive),> 100 µM (inactive),> 100 µM (inactive),> 100 µM (inactive),> 100 µM (inactive),> 100 µM (inactive),> 100 µM (inactive),> 100 µM (inactive),> 100 µM (inactive),> 100 µM (inactive),> 100 µM (inactive),> 100 µM (inactive),> 100 µM (inactive),> 100 µM (inactive),> 100 µM (inactive),> 100 µM (inactive)
N#Cc1ccc(C2ON=C(c3ccccc3)N2C23CC4CC(CC(C4)C2)C3)cc1 (stereo not given),> 10 µM (inactive),> 10 µM (inactive),> 10 µM (inactive),> 10 µM (inactive),> 10 µM (inactive),> 10 µM (inactive),9.66 µM (inactive),6.76 µM (inactive),> 10 µM (inactive),0.00536 µM (active),> 10 µM (inactive),7.98 µM (inactive),6.19 µM (inactive),> 10 µM (inactive),> 10 µM (inactive),> 10 µM (inactive),> 10 µM (inactive),> 10 µM (inactive),> 10 µM (inactive),> 10 µM (inactive)
